The values below come from paper PMC10313066, “In-vitro high-throughput library screening—Kinetics and molecular docking studies of potent inhibitors of α-glucosidase” (PLOS ONE, 2023).

One assay deals with carbonic anhydrase II. Details: method as in earlier work. Particulars: cited from earlier work.
Another assay has as its system urease. Details: method as in earlier work. Particulars: cited from earlier work.
The target of assay [1] is T1, α-glucosidase (Saccharomyces cerevisiae, UniProt P53341). The assay is described as follows: α-glucosidase inhibition assay (96-well, pNPG substrate, 405 nm). The format is biochemical. Particulars: S3 Table; for OD of sample: absorbance at 405 nm; for inhibition at 500 µM (stock): test compound 20 μL of 0.5 mM, read-out: Percentage Inhibition. The protocol: The assay is based on the method given by Pistia-Brueggeman with slight modifications. In a 96-well plate 120 μL of sodium phosphate buffer (pH = 7) was taken and 20 μL of the enzyme (2U/mL) was added. Then 20 μL of test compound (0.5 mM) was added and then incubated for 15 min. at 37 °C. In sequence, substrate pNPG (20 μL, 1mM) was taken in each well, and dissolved in buffer. The reaction mixture was again incubated for 15 min. at 37 °C. The reaction was stopped by the addition of 20 μL of 0.1 mM Na2CO3, so that the final volume reaches 200 μL. The activity of the enzyme was measured spectrophotometrically at 405 nm by measuring the concentration of product formed, using SpectraMax M2 (Molecular Devices CA, USA). Each sample was taken in triplicate and the % inhibition was measured. […]
T1 sequence (P53341 whole entry): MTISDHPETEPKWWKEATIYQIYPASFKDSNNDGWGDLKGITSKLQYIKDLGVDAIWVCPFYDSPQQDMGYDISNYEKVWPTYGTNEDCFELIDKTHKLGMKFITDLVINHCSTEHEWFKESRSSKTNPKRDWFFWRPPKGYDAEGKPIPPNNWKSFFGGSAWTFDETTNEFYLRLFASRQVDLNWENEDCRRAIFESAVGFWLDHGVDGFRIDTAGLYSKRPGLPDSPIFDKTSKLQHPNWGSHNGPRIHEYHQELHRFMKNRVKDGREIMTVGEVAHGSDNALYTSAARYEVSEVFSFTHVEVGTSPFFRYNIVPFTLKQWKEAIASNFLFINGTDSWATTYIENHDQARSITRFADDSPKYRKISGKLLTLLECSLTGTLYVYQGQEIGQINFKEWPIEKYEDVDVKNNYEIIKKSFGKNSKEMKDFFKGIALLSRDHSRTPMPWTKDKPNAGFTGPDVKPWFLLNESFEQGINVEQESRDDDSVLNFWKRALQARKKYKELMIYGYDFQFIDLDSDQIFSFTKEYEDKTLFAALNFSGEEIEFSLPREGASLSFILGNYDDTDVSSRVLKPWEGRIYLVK

Assay [2] has as its target T1, α-glucosidase. The assay is described as follows: Kinetic studies, Line-weaver Burk plot (type of enzyme inhibition). The settings on record: Vmax and Km both change with inhibitor concentration. In kind it is biochemical. The protocol:
The type of enzyme inhibition was determined by using the Line-weaver Burk plot. For this, out of 4 different concentrations of each sample, each concentration is analyzed against 4 different concentrations of substrate ranging from 1 mM to 0.125 mM. The inverse of maximum velocity (1/Vmax), obtained for each concentration, is plotted against the inverse of substrate concentrations (1/[S]) to find out type of enzyme inhibition.

As for `O=C(C1=C(c2ccccc2)NC(=S)NC1c1cccc(O)c1)c1ccccc1` (stereo not drawn) [(4-(3-hydroxyphenyl)-6-phenyl-2-thioxo-1,2,3,4-tetrahydropyrimidin-5-yl)phenyl)methanone], on carbonic anhydrase II, the concentration for half-maximal inhibition (IC50) (in general, the concentration that gives 50% inhibition) was 98 µM.
Turning to `N=C(N)NCCC[C@@H](N)c1nnc(-c2cccs2)o1` [(R)-1-(4-amino-4-(5-(thiophen-2-yl)-1,3,4-oxadiazol-2-yl)butyl)guanidine], the IC50 in the assay on urease is 47 µM.
As to `O=[N+]([O-])c1ccc(N/N=C\c2ccc(O)cc2)c([N+](=O)[O-])c1` [compound 5], on α-glucosidase [1], the OD of sample is 0.62.
In the case of `Clc1ccc(-c2nnc(-c3ccc[nH]3)o2)c(Cl)c1` [compound 25, 2-(2,4-dichlorophenyl)-5-(1H-pyrrol-2-yl)-1,3,4-oxadiazole], at α-glucosidase [1], the OD of sample is recorded as 0.33 and the inhibition (as a rule, the relative decrease from the control value, in per cent) at 500 µM (stock) is 90%. The “mode (type) of enzyme inhibition” value at α-glucosidase [2] was “un-competitive”.
Take `O=C1Oc2ccccc2C(=O)/C1=C/c1ccc(-c2ccccc2)cc1` [compound 54]: on α-glucosidase [1], the OD of sample is listed as 0.39 and the inhibition at 500 µM (stock) stood at 85.6%.
The like results for `CCCCCCCCCCCCSc1nc2ccccc2n1CC(=O)N/N=C/c1ccc(O)c(OCC)c1` [compound 96] were, in that order, 0.64 and 80.1%.
The like results for `COc1ccc(S(=O)(=O)N2CCC(c3nnc(SC(C)C(=O)Nc4ccc(C)cc4)n3-c3ccccc3)CC2)cc1` (stereo not drawn) [compound 185] were, in that order, 0.49 and 81.9%.
On to `CCSc1nc2ccccc2n1CC(=O)N/N=C/c1ccc(O)cc1O` [compound 228, (E)-N’-(2,4-dihydroxybenzylidene)-2-(2-(ethylthio)-1H-benzo[d]imidazol-1-yl)acetohydrazide], for which, at α-glucosidase [1], the OD of sample is recorded as 0.30 and the inhibition at 500 µM (stock) amounted to 91.2%. Moreover, the “mode (type) of enzyme inhibition” value on α-glucosidase [2] is given as “un-competitive”.
